Data published in publication PMC8405639, “2-Carba-lysophosphatidic acid is a novel β-lysophosphatidic acid analogue with high potential for lysophosphatidic acid receptor activation and autotaxin inhibition” (Scientific Reports, 2021).

Key:
human recombinant ATX = biological target: T1, human recombinant ATX (Homo sapiens, UniProt Q13822); assay: Choline oxidase assay of LPC cleavage by ATX; assay type: biochemical; details: LPC 16:0 300 µM, ATX 50 nM, 2 h, 37 °C, various concentrations
T1 construct: purchased Cayman Chemical
Experimental: (a) Concentration–response curves for the inhibition of ATX activity as measured by the […] of the substrate lysophosphatidylcholine (LPC) using choline oxidase and peroxidase. LPC 16:0 (final concentration: 300 µM, above its critical micellar concentration [CMC]), human recombinant ATX (final concentration: 50 nM), and various concentrations of cPA analogues were used for incubation with 4-aminoantipyrine, TOOS (final concentration: 0.05% (w/v) each), choline oxidase and peroxidase (final concentration: 10 U/mL each) in the ATX assay buffer. […] Inhibition was calculated as percentage (%) of reduction in absorbance compared with absorbance in the vehicle control (without cPA analogues) after subtraction of the value measured at time 0. Data are represented as mean ± standard deviation (n = 3–4 samples). (b) Inhibition of ATX activity measured by lysophosphatidic acid (LPA 16:0) production via liquid chromatography coupled to triple quadrupole mass spectrometry (LC-QqQ). The substrate LPC 16:0 (final concentration: 300 µM) was incubated with human recombinant ATX (final concentration: 50 nM) and cPA analogues (final concentration: 10 μM) for 2 h at 37 °C. The ATX product, LPA 16:0, was quantified by LC-QqQ. Inhibition was calculated as percentage (%) of reduction in LPA production compared with LPA production in the vehicle control (without cPA analogues). Data are represented as mean ± standard deviation (n = 5–6 samples).
Human recombinant ATX (50 nM final concentration, 5 µL in ATX assay buffer: 50 mM Tris, 140 mM NaCl, 5 mM KCl, 1 mM CaCl2, 1 mM MgCl2, pH 8.0) and cPA analogues (5 µL each in ATX assay buffer) at various concentrations were added in a 96-well plate and mixed with 90 µL of LPC 16:0 (final concentration: 300 µM) as substrate, 4-aminoantipyrine, TOOS (final concentration: 0.05% w/v each), choline oxidase and peroxidase (final concentration: 10 units/mL each) in ATX assay buffer. […] Inhibition was calculated as a percentage (%) of reduction in absorbance compared to absorbance in the vehicle control (without cPA analogues) after subtraction of the value measured at time 0.

hLPA1 = biological target: T2, hLPA1 (Homo sapiens, UniProt Q92633); assay: TGFα-shedding assay, LPA1; assay type: cell-based; details: 293A cells, AP-TGFα release; for EC50: 1 h; for Emax: read-out: Emax ± SEM hLPA1 (converted)
T2 construct: expressed in transfected cells; host or cells: 293A cells
T2 sequence (Q92633 whole entry): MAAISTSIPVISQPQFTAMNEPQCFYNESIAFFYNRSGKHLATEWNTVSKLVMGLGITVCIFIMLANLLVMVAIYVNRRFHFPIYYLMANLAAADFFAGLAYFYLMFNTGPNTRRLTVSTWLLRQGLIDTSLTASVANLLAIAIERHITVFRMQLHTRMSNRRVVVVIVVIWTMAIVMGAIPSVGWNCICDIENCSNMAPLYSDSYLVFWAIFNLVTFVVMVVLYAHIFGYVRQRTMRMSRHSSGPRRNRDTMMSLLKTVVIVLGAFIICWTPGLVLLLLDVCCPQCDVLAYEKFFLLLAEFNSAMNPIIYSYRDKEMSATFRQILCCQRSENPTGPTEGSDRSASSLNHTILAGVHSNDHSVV
Experimental: Figure 4 Agonistic activity of 2-carba-lysophosphatidic acid (2carbaLPA) and cyclic phosphatidic acid (cPA) analogues toward six lysophosphatidic acid (LPA) receptors. 293A cells expressing LPA receptors were stimulated with the indicated concentration of LPA, 2carbaLPA, and cPA analogues. Receptor-specific alkaline phosphatase-tagged transforming growth factor-α release was calculated by subtracting the responses in the empty vector-transfected cells from those in the receptor-expressing cells. Data are represented as standard error of the mean of three independent replicates.
293A cells (Life Technologies, Tokyo, Japan) were cultured in DMEM (Nissui Pharmaceutical, Tokyo, Japan) supplemented with 10% foetal calf serum (Gibco, Waltham, MA, USA) in an incubator at 37 °C and 5% CO2. This assay was conducted according to a modified version of a method described previously. To improve signal detection, cells for the analysis of LPA1, LPA2, LPA4, and LPA5 were transfected with Gα-chimeric proteins, whereas those for LPA4, LPA5, LPA6 analysis were treated with the LPA1–3 antagonist Ki16425. The cells were co-transfected with vectors-expressing human LPA1–6, alkaline phosphatase-tagged TGFα (AP-TGFα). As negative controls, cells transfected with an empty vector instead of the receptor-expressing vector were used. After 24 h, the cells were resuspended in Hank’s balanced salt solution (HBSS), seeded in 96-well plates, and stimulated with cPA analogues administered at tenfold concentration of the final concentration. The cPA analogues were diluted with HBSS, 0.01% protease and fatty acid-free BSA (SERVA Electrophoresis GmbH, Heidelberg, Germany). Cells for LPA4, LPA5, and LPA6 analysis were treated with Ki16425 (final concentration: 10 μM), 5 min before treatment with the cPA analogues. After incubation for 1 h at 37 °C, 80 µL of the supernatant was transferred to fresh 96-well plates. An equal volume of 1 mM p-NPP solution [120 mM Tris–HCl (pH 9.5), 40 mM NaCl, and 10 mM MgCl2] was added to both the supernatant and the cells. Alkaline phosphatase activity was calculated by measuring absorbance at 405 nm using the Cytation 3 plate reader (BioTek, Winooski, VT, USA).

| EC50 (hLPA1) | Emax (hLPA1) | SMILES | Inhibition of lysoPLD activity of ATX (choline oxidase assay) (human recombinant ATX) |
| --- | --- | --- | --- |
| 0.0548 µM | 27% | CCCCCCCC/C=C\CCCCCCCC(=O)OCC(CO)CP(=O)(O)O (stereo not drawn) [2carbaLPA 18:1, 2-carba-lysophosphatidic acid] | inhibited the lysoPLD activity of ATX in a dose-dependent manner |
| 0.011 µM | 26.9% | CCCCCCCC/C=C\CCCCCCCC(=O)OC[C@@H](O)CCP(=O)(O)O [3carba LPA 18:1, 3-carba-lysophosphatidic acid] | inhibited the lysoPLD activity of ATX in a dose-dependent manner |
| 0.37 µM | 26.9% | CCCCCCCC/C=C\CCCCCCCC(=O)OC[C@@H]1CCP(=O)(O)O1 [3ccPA 18:1, 3-carba-cyclic phosphatidic acid] | lower inhibitory activity than the other analogues, except for LPA and cPA |
| 0.46 µM | 24.1% | CCCCCCCC/C=C\CCCCCCCC(=O)OC[C@@H]1COP(=O)(O)O1 [cPA 18:1, 1-Oleoyl-cPA] | significantly lower inhibitory activity |
| 0.997 µM | 20.6% | CCCCCCCC/C=C\CCCCCCCC(=O)OCC1COP(=O)(O)C1 (stereo not drawn) [2ccPA 18:1, 2-carba-cyclic phosphatidic acid] | inhibited the lysoPLD activity of ATX in a dose-dependent manner |
